IC50 data for seven compounds are collected here from patent publication US9388181B2, “Substituted 1,2,3,4-tetrahydropyrido[3,4-E] pyrrolo[1,2-A]pyrimidines as kinase” (Allergan, Inc., priority 2014, dated 2016).

Assay [1] concerns the target T1, PDGFRβ (Homo sapiens (Human), UniProt P09619). Description: PDGFRβ Kinase Assay (biochemical, ELISA). The settings on record: purified cytoplasmic domain PDGFR-b protein, 36 μM ATP. Here is the method: Biochemical PDGFRβ kinase assays were performed in 96 well microtiter plates that were coated overnight with 75 μg of poly-Glu-Tyr (4:1) in 10 mM Phosphate Buffered Saline (PBS), pH 7.4. The coated plates were washed with 2 mls per well PBS+0.05% Tween-20 (PBS-T), blocked by incubation with PBS containing 1% BSA, then washed with 2 mls per well PBS-T prior to starting the reaction. Reactions were carried out in 100 μL reaction volumes containing 36 μM ATP in kinase buffer (50 mM Hepes buffer pH 7.4, 20 mM MgCl2, 0.1 mM MnCl2 and 0.2 mM Na3VO4). Test compounds were reconstituted in 100% DMSO and added to the reaction to give a final DMSO concentration of 5%. Reactions were initiated by the addition 20 ul per well of kinase buffer containing 200-300 ng purified cytoplasmic domain PDGFR-b protein (Millipore). Following a 60 minute incubation at 30° C., the reactions were washed 2 mls per well PBS-T. 100 μl of a monoclonal anti-phosphotyrosine antibody-peroxidase conjugate diluted 1:10,000 in PBS-T was added to the wells for 30 minutes. Following a 2 mis per well wash with PBS-Tween-20, 100 μl of 0-Phenylenediamine Dihydrochloride in phosphate-citrate buffer, containing urea hydrogen peroxide, was added to the wells for 7-10 minutes as a colorimetric substrate for the peroxidase. The reaction was terminated by the addition of 100 μl of 2.5N H2SO4 to each well and read using a microplate ELISA reader set at 492 nm. IC50 values for compound inhibition were calculated directly from graphs of optical density (arbitrary units) versus compound concentration following subtraction of blank values.
Target sequence in this assay (P09619 554-1106): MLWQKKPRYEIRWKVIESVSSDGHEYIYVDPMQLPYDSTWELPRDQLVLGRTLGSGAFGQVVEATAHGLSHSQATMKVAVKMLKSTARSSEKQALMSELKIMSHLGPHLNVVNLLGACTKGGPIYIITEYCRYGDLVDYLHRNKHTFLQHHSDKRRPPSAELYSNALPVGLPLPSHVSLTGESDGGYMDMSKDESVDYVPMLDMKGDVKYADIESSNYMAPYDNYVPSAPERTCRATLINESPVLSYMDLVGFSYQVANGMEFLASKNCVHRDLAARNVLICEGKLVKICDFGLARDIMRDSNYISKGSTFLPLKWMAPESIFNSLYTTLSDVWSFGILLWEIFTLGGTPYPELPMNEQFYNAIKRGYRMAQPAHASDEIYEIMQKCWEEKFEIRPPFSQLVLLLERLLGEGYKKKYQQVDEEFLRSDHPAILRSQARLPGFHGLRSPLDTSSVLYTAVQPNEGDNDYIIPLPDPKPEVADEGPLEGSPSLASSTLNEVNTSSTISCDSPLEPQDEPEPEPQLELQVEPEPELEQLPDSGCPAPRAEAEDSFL
On the technique in general: An ELISA detects its analyte on a solid surface through an enzyme-linked reagent.

Another assay has as its target VEGFR2 (Homo sapiens (Human), UniProt P35968). Put plainly: VEGFR2 Cellular Assay (FLIPR, VEGF induced intracellular calcium in HUVEC). The class given is cell-based. The settings on record: VEGF165 stimulation (10 ng/mL). Here is the method:
VEGFR2 Cellular Assay Automated FLIPR (Fluorometric Imaging Plate Reader) technology was used to screen for inhibitors of VEGF induced increases in intracellular calcium levels in fluorescent dye loaded endothelial cells. HUVEC (human umbilical vein endothelial cells) (Clonetics) were seeded in 384-well fibronectin coated black-walled plates overnight @ 37° C./5% CO2. Cells were loaded with calcium indicator Fluo-4 for 45 minutes at 37° C. Cells were washed 2 times (Elx405, Biotek Instruments) to remove extracellular dye. For screening, cells were pre-incubated with test agents for 30 minutes, at a single concentration (10 uM) or at concentrations ranging from 0.0001 to 10.0 uM followed by VEGF165 stimulation (10 ng/mL). Changes in fluorescence at 516 nm were measured simultaneously in all 384 wells using a cooled CCD camera. Data were generated by determining max-min fluorescence levels for unstimulated, stimulated, and drug treated samples. IC50 values for test compounds were calculated from inhibition of VEGF stimulated responses in the absence of inhibitor.

The next assay concerns the target VEGFR2 (KDR) (Homo sapiens (Human), UniProt P35968). Put plainly: VEGFR2 Kinase Assay (biochemical KDR kinase assay, ELISA). To be noted: purified cytoplasmic domain KDR protein, 2.7 μM ATP. As for the experimental part: Biochemical KDR kinase assays were performed in 96 well microtiter plates that were coated overnight with 75 μg/well of poly-Glu-Tyr (4:1) in 10 mM Phosphate Buffered Saline (PBS), pH 7.4. The coated plates were washed with 2 mls per well PBS+0.05% Tween-20 (PBS-T), blocked by incubation with PBS containing 1% BSA, then washed with 2 mls per well PBS-T prior to starting the reaction. Reactions were carried out in 100 μL reaction volumes containing 2.7 μM ATP in kinase buffer (50 mM Hepes buffer pH 7.4, 20 mM MgCl2, 0.1 mM MnCl2 and 0.2 mM Na3VO4). Test compounds were reconstituted in 100% DMSO and added to the reaction to give a final DMSO concentration of 5%. Reactions were initiated by the addition 20 ul per well of kinase buffer containing 200-300 ng purified cytoplasmic domain KDR protein (BPS Bioscience, San Diego, Calif.). Following a 15 minute incubation at 30° C., the reactions were washed 2 mls per well PBS-T. 100 μl of a monoclonal anti-phosphotyrosine antibody-peroxidase conjugate diluted 1:10,000 in PBS-T was added to the wells for 30 minutes. Following a 2 mis per well wash with PBS-Tween-20, 100 μl of O-Phenylenediamine Dihydrochloride in phosphate-citrate buffer, containing urea hydrogen peroxide, was added to the wells for 7-10 minutes as a colorimetric substrate for the peroxidase. The reaction was terminated by the addition of 100 μl of 2.5N H2SO4 to each well and read using a microplate ELISA reader set at 492 nm. IC50 values for compound inhibition were calculated directly from graphs of optical density (arbitrary units) versus compound concentration following subtraction of blank values.

The target of assay [2] is T1, PDGFRβ. Description: PDGFRβ Cellular Assay (FLIPR, PDGF-induced intracellular calcium in NHDF-Ad). To be noted: PDGF-BB stimulation (30 ng/mL). The class given is cell-based. As for the experimental part:
NHDF-Ad (Normal Human Dermal Fibroblasts, Adult; Lonza) were seeded in 384-well fibronectin coated black-walled plates overnight @ 37° C./5% CO2. Cells were loaded with calcium indicator Fluo-4 for 45 minutes at 37° C. Cells were washed 2 times (Elx405, Biotek Instruments) to remove extracellular dye. For screening, cells were pre-incubated with test agents for 30 minutes, at a single concentration (10 uM) or at concentrations ranging from 0.0001 to 10.0 uM followed by PDGF-BB stimulation (30 ng/mL). Changes in fluorescence at 516 nm were measured simultaneously in all 384 wells using a cooled CCD camera. Data were generated by determining max-min fluorescence levels for unstimulated, stimulated, and drug treated samples. IC50 values for test compounds were calculated from % inhibition of PDGF-BB stimulated responses in the absence of inhibitor.
Target sequence in this assay (P09619 33-1106): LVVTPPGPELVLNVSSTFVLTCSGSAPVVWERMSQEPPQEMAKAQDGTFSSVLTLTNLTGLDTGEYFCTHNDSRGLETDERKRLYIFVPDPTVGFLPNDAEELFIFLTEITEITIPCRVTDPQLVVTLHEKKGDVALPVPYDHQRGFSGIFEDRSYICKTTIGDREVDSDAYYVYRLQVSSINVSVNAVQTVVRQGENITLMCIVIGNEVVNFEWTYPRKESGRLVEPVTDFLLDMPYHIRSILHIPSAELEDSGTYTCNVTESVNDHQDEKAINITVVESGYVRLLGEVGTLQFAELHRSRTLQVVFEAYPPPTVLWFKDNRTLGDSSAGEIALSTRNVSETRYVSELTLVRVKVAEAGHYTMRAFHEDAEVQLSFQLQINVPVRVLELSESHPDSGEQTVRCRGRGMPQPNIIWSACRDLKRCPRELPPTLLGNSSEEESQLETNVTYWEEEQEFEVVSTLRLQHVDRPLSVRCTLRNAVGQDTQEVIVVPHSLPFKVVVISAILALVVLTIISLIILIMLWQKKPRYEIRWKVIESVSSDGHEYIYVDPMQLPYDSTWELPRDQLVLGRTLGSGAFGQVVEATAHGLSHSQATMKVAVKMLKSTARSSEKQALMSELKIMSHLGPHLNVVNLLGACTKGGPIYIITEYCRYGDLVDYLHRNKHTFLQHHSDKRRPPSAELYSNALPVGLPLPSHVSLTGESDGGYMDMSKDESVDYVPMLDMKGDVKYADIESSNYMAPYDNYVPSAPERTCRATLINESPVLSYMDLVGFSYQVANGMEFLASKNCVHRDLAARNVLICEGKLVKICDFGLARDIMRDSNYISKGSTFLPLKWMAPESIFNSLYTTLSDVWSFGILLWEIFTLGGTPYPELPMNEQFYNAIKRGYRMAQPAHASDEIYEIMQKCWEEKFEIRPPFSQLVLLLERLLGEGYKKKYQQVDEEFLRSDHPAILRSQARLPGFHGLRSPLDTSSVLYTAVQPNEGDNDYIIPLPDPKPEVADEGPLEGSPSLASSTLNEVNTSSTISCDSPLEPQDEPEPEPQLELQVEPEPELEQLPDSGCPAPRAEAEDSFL
(In general: A change in cytosolic calcium serves as a functional read-out for many receptors and channels.)

For orientation: IC50 means the concentration needed to halve the response being measured.

Chain of VEGFR2 (KDR) (P35968 786-1356): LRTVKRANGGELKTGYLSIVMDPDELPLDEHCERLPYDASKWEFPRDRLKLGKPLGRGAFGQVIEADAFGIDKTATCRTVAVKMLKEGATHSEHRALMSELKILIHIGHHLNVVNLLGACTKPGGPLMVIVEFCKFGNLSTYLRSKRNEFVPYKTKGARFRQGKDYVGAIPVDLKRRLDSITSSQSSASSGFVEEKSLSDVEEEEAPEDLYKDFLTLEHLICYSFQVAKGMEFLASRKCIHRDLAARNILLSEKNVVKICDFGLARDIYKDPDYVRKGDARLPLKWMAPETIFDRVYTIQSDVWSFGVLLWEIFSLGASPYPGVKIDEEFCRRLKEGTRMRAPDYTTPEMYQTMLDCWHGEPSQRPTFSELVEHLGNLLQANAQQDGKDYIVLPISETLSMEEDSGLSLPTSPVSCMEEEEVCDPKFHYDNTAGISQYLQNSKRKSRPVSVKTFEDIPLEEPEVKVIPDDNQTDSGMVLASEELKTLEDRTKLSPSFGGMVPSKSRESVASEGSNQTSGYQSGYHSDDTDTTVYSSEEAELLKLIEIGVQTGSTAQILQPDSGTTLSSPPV
Chain of VEGFR2 (P35968 20-1356): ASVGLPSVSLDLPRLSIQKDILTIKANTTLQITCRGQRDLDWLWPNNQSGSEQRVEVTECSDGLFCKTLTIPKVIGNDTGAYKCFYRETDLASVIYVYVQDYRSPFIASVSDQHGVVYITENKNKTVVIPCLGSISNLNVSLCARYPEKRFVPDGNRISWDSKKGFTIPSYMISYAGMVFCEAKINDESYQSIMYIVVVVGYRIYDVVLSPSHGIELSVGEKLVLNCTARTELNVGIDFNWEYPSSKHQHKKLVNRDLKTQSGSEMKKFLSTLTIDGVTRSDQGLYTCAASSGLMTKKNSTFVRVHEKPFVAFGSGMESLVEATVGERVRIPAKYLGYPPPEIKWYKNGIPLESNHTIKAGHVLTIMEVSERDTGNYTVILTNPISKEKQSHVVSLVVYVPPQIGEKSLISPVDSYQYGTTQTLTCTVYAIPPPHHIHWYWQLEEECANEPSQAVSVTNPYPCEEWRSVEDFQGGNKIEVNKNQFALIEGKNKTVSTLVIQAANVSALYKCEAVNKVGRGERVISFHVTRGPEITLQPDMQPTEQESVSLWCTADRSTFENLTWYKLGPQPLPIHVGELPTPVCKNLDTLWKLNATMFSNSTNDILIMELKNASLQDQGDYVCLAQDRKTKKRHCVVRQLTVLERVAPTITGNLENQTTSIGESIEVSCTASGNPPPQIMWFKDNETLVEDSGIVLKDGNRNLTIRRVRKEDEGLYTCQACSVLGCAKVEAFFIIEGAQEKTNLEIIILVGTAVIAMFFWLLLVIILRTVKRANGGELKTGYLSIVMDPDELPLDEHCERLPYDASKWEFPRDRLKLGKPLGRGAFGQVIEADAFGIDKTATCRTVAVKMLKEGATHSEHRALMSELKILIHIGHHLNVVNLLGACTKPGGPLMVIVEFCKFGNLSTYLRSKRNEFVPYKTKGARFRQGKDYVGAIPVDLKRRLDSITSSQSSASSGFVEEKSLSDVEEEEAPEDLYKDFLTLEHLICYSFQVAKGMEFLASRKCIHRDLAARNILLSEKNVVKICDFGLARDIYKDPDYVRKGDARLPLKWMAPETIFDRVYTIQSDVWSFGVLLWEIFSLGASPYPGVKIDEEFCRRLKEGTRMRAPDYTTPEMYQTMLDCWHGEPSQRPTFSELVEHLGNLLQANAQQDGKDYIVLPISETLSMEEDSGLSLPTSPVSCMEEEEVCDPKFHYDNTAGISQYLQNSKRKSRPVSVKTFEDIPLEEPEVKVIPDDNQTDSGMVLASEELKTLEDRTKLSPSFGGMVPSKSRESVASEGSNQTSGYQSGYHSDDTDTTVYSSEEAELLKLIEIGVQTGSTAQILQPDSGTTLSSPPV

Take `CC(C)c1cccc(NC(=O)c2cccc(N3CCc4c(cnc5ccnn45)C3)c2)c1` [Example 3, 3-(8,9-dihydropyrazolo[1,5-a]pyrido[3,4-e]pyrimidin-7(6H)-yl)-N-(3-isopropylphenyl)benzamide]: the figures for the IC50 at PDGFRβ [1], at VEGFR2 and at VEGFR2 (KDR) were 20 nM, 26 nM and 8 nM, respectively.

On to `O=C(Nc1cccc(C(F)(F)F)c1)c1cccc(N2CCc3c(cnc4ccnn34)C2)c1` [Example 4, 3-(8,9-dihydropyrazolo[1,5-a]pyrido[3,4-e]pyrimidin-7(6H)-yl)-N-[3-(trifluoromethyl)phenyl] benzamide], for which the IC50 on PDGFRβ [1] stood at 27 nM; on VEGFR2, 70 nM; on PDGFRβ [2] it was 192 nM; against VEGFR2 (KDR), 6 nM.

Turning to `CC(C)c1cccc(NC(=O)c2cccc(N3Cc4cnc5ccnn5c4C3)c2)c1` [Example 7, 3-(6,8-dihydro-7H-pyrazolo[1,5-a]pyrrolo[3,4-e]pyrimidin-7-yl)-N-(3-isopropylphenyl)benzamide], at VEGFR2 (KDR), the IC50 was over 10000 nM.

On to `CC(C)(C)OC(=O)Nc1cccc(N2CCc3c(cnc4ccnn34)C2)c1` [Example 8, tert-Butyl (3-(8,9-dihydropyrazolo[1,5-a]pyrido[3,4-e]pyrimidin-7(6H)-yl)phenyl)carbamate], for which the IC50 against VEGFR2 (KDR) was over 10000 nM.

Consider `O=C(Nc1cccc(N2CCc3c(cnc4ccnn34)C2)c1)c1ccccc1` [Example 10, N-[3-(8,9-dihydropyrazolo[1,5-a]pyrido[3,4-e]pyrimidin-7(6H)-yl)phenyl]benzamide], for which the IC50 against PDGFRβ [1] is 202 nM; against VEGFR2 (KDR) it was 101 nM.

Regarding `O=C(Nc1cccc(N2CCc3c(cnc4ccnn34)C2)c1)c1cccc(C(F)(F)F)c1` [Example 11, N-[3-(8,9-dihydropyrazolo[1,5-a]pyrido[3,4-e]pyrimidin-7(6H)-yl)phenyl]-3-(trifluoromethyl)benzamid], the IC50 turned out to be 21 nM against PDGFRβ [1] and 6 nM against VEGFR2 (KDR).

For `Cc1cccc(NC(=O)Nc2cccc(N3CCc4c(cnc5ccnn45)C3)c2)c1` [Example 12, 1-[3-(8,9-dihydropyrazolo[1,5-a]pyrido[3,4-e]pyrimidin-7(6H)-yl)phenyl]-3-(3-methylphenyl)urea], the figures for the IC50 against PDGFRβ [1] and on VEGFR2 (KDR) were 32 nM and 27 nM, respectively.
